≈ marks a conversion by molar mass, not a printed value. Where a SMILES comes first, the peptide text is derived from it. The star is where a group is joined. NHtBu = CC(C)(C)N*
Details: not given

SMILES	logP	solubility
CCC(=O)OC	0.84	–
CN1CCN(Cc2cccc(COc3ccccc3)c2)CC1	3.05	–
O=C1CC(c2ccccc2)Oc2ccccc21 (stereo unspecified)	3.14	–
CC[C@H](C)[C@H](NC(=O)[C@@H](NC(=O)[C@@H](NC(C)=O)C(C)C)C(C)C)C(N)=O (Ac-Val-Val-Ile-NH2)	0.49	–
CC(=O)Nc1nc2c(ncn2COCCO)c(=O)[nH]1	-1.3	–
O=C(O)CCOc1cccc2ccccc12	3	–
CCCCCCC	4.66	–
O=[N+]([O-])c1cc(Cl)c(Cl)c(Cl)c1Cl	3.93	–
CSc1nc2ccccc2s1	3.15	–
CCCCNCc1ccccc1	2.59	–
c1ccc2c(c1)ccc1[nH]c3ccc4ccccc4c3c12	–	0.000236 mM (≈ 6.3e-05 mg/mL)
NC(=O)c1ccccc1NCCO	-0.05	–
CC(=O)NC(C)C(=O)NC(CC(=O)O)C(=O)NC(C)(C)C (stereo not drawn) (Ac-Ala-Asp-NHtBu; configuration not given here)	-0.74	–
CC(=O)OC1C=CC2C3Cc4ccc(O)c5c4C2(CCN3C)C1O5 (stereo unspecified)	1.55	–
CCCOC(=O)[C@@H](N)Cc1ccc(O)c(O)c1	0.76	–

Same assay, conditions: 20 °C

SMILES	solubility
C=COCC(C)C	30 mM (≈ 3 mg/mL)
COCc1cnc(C2=NC(C)(C(C)C)C(=O)N2)c(C(=O)O)c1 (stereo unspecified)	14.5 mM (≈ 4.41 mg/mL)
N#Cc1cccnc1	1300 mM (≈ 135 mg/mL)
CCC#CC(C)O (stereo unspecified)	387 mM (≈ 38 mg/mL)
CCOC(C)(C)C	117 mM (≈ 12 mg/mL)
Cc1cncc(C)c1	308 mM (≈ 33 mg/mL)
CC(C)(CO)[N+](=O)[O-]	29400 mM (≈ 3500 mg/mL)
Oc1cc(O)c2ccccc2c1	11.2 mM (≈ 1.8 mg/mL)
COP(=O)(OC)OC(=CCl)c1cc(Cl)c(Cl)cc1Cl	0.0301 mM (≈ 0.011 mg/mL)
CC(C)(C)C1CCC(O)CC1 (stereo unspecified)	0.64 mM (≈ 0.1 mg/mL)
CC(O)CN(CC(C)O)CC(C)O (stereo unspecified)	4340 mM (≈ 830 mg/mL)
C=CC(=O)NCO	6460 mM (≈ 653 mg/mL)

Same assay, conditions: 22.0 °C

SMILES	log10 OH rate constant (cm³/molecule/s)
CC(C)CO[N+](=O)[O-]	-12
COC(F)(F)C(F)(F)C(F)(F)C(F)(F)F	-14.1

Same assay, conditions: 23 °C

SMILES	solubility
C[Si]1(C)O[Si](C)(C)O[Si](C)(C)O[Si](C)(C)O[Si](C)(C)O1	4.58e-05 mM (≈ 1.7e-05 mg/mL)
NC(=O)c1c(Cl)cccc1Cl	14.4 mM (≈ 2.73 mg/mL)

Same assay, conditions: 23.0 °C

SMILES	log10 OH rate constant (cm³/molecule/s)
CC(C)CC(C)(C)O	-10.9
C=C1[C@H]2CC[C@@H]3[C@H]2C(C)(C)CCC[C@]13C	-10.3
CCC(=O)C(O)CC (stereo unspecified)	-10.8
CCC(C)OCOC(C)CC (stereo unspecified)	-10.4
CC(=O)C1CC=C(C)CC1 (stereo unspecified)	-9.89
O=C1CC=CO1	-10.4

Same assay, conditions: 24 °C

SMILES	solubility
CCCCN(C)N=O	200 mM (≈ 23.2 mg/mL)

Same assay, conditions: 24.0 °C

SMILES	log10 OH rate constant (cm³/molecule/s)
Clc1cc(Cl)cc(-c2ccccc2)c1	-11.4

Same assay, conditions: 25 °C

SMILES	solubility
Nc1ncc2ncn(COCCO)c2n1	83.7 mM (≈ 17.5 mg/mL)
Cc1ccccc1C(C)C	0.174 mM (≈ 0.0233 mg/mL)
Cc1ccc2cc3ccc4ccccc4c3cc2c1	0.000227 mM (≈ 5.5e-05 mg/mL)
CC(C)(C)Br	4.38 mM (≈ 0.6 mg/mL)
CCCCCCCCCCCCCCCCCO	3.12e-05 mM (≈ 8e-06 mg/mL)
O=C1CCC(N2C(=O)c3ccccc3C2=O)C(=O)N1 (stereo unspecified)	2.11 mM (≈ 0.545 mg/mL)
N#CCC#N	2010 mM (≈ 133 mg/mL)
OCC(CO)(CO)COCC(CO)(CO)CO	11 mM (≈ 2.8 mg/mL)
CNC(=O)Oc1cc(C)cc(C(C)C)c1	0.439 mM (≈ 0.091 mg/mL)
c1ccc2c(c1)ccc1ccc3ccccc3c12	1.51e-05 mM (≈ 3.45e-06 mg/mL)
CCCCC(C=O)CC (stereo unspecified)	3.12 mM (≈ 0.4 mg/mL)
BrC1CCCCC1	5.08 mM (≈ 0.828 mg/mL)
CC1(C)Cc2cccc([N+](=O)[O-])c2O1	0.621 mM (≈ 0.12 mg/mL)
CC(C)CO[N+](=O)[O-]	11.2 mM (≈ 1.33 mg/mL)
CCCCCCCCCCCCCCCC	3.97e-06 mM (≈ 9e-07 mg/mL)
CCCCOP(=O)(OCCCC)Oc1ccccc1	0.335 mM (≈ 0.096 mg/mL)
CCCCCCCCCCCCN	0.421 mM (≈ 0.078 mg/mL)
C#Cc1ccccc1	4.46 mM (≈ 0.456 mg/mL)
Cc1cc(Cl)ccc1O	28.1 mM (≈ 4 mg/mL)
CN(C)c1ccccc1	12 mM (≈ 1.45 mg/mL)
CCC(=O)OC	708 mM (≈ 62.4 mg/mL)
COCCOC(=O)c1ccccc1C(=O)OCCOC	30.1 mM (≈ 8.5 mg/mL)
Nc1ccc(Cc2ccc(N)cc2)cc1	5.04 mM (≈ 1 mg/mL)
CCCOC(=O)COc1ccc(Cl)cc1Cl	0.0562 mM (≈ 0.0148 mg/mL)
CN/C(=N\C#N)NCCSCc1nc[nH]c1C	41 mM (≈ 10.3 mg/mL)

Same assay, conditions: 25.0 °C

SMILES	log10 OH rate constant (cm³/molecule/s)
Clc1c(Cl)c(Cl)c(Cl)c(Cl)c1Cl	-13.6
Oc1ccc2ccccc2c1	-9.77
FC1(F)OC(F)(F)C1(F)F	< -15.7
FC(F)=C(F)OC(F)(F)F	-11.4
FC(F)C(F)F	-14.2
O=C/C=C/C=C/C=O	-10
FC(F)C(F)(F)OCC(F)(F)F	-13
CCCN(CCC)C(=O)SCC	-10.5
CC(=O)C(C)C	-11.5
C[Si]1(C)O[Si](C)(C)O[Si](C)(C)O[Si](C)(C)O[Si](C)(C)O1	-11.8
CCCC(=O)O	-11.6
CSC(=O)N(C)C	-10.9
CCCCCCBr	-11.2
COC(F)(C(F)(F)F)C(F)(F)F	-13.8
Clc1c(Cl)c(Cl)c2c(c1Cl)Oc1ccccc1O2	-12.1

Same assay, conditions: 27.0 °C

SMILES	log10 OH rate constant (cm³/molecule/s)
CNC(C)=O	-11.3

Same assay, conditions: 30 °C

SMILES	solubility
Ic1ccccc1	1.67 mM (≈ 0.34 mg/mL)
